Assays:
[1] = system: anti-OVA-specific IgE antibody; details: mouse, in vivo
How it was run: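 Female BALB/c mice (8-week-old, N=6) were immunized dorsal-subcutaneously with OVA (5 or 10 μg) alone or with adjuvants (Alum, Addavax™, CpG 5 μg, MPL 5 μg, or test lipid 0.256 μmol in 5% αCD saline), boosted one week later. Serum anti-OVA IgE was measured by capture ELISA with HRP-labeled OVA, read at OD 450 nm against a standard curve.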

[2] = Dispersibility study: turbidity in cyclodextrin-added saline; format: physicochemical; details: Example 11; SZ62 0.256 μmol in 1 mL; absorbance 650 nm, ratio to kaolinite
Procedure: N-hexadecanoylagmatine (SZ62: compound wherein group corresponding to R^7 in formula (II) is C15 alkyl group) (0.256 μmol) was separated in a 2 mL tube containing zilconia beads, 1 mL of 5% αCD-added saline or 10% 2-hydroxypropyl-β-cyclodextrin (hereinafter to be also simply referred to as HP-β-CD)-added saline was added and the mixture was stirred. Thereafter, the absorbance (OD Value=650 nm) was measured by a microplate reader, and the turbidity was calculated as an index of dispersibility. The measurement method of the turbidity was as follows.
Measurement Method of Turbidity
SZ62 (0.256 μmol) was dispensed to a 2 mL tube containing zirconia beads, 5% αCD-added saline or 10% HP-β-CD-added saline (1 mL) was added, and the mixture was vigorously stirred three times under conditions of one time for 3.15 seconds at 6000 rpm. The mixture was dispensed by 200 μL to a 96 well plate, and the absorbance (OD Value=650 nm) was measured by a microplate reader. As a control, kaolinite (1 mg) was dissolved in distilled water (1 L), and the absorbance (OD Value=650 nm) was measured by a microplate reader. The absorbance thereof (OD Value=650 nm) was defined to be turbidity: 1, and the turbidity of each sample was calculated from the ratio with the measured value of kaolinite.

[3] = system: anti-influenza IgA antibody; test: Transnasal influenza vaccine adjuvant activity: anti-influenza IgA antibody in nasal cavity wash; format: in vivo, BALB/c mice; details: Example 4, influenza HA vaccine 20 μl, SZ62 1 μg, Poly(I:C) 5 μg, two weeks from secondary immunization

| Compound | allergy inducing activity as compared to Addavax [1] | anti-OVA-specific IgE antibody production as compared to the OVA single administration group [1] | allergy inducing activity as compared to aluminum hydroxide gel adjuvant [1] | allergy inducing activity as compared to aluminum hydroxide gel adjuvant and Addavax [1] | turbidity after addition of 10% HP-β-CD-added saline and stirring, versus turbidity after addition of 5% αCD-added saline [2] | anti-influenza IgA antibody production in nasal cavity wash as compared to the influenza vaccine single administration group [3] |
| --- | --- | --- | --- | --- | --- | --- |
| CCCCCCCCCCCCCCCC(=O)N[C@@H](CCCNC(=N)N)C(=O)OCCCCCC.Cl [SZ99, N^2-hexadecanoyl-L-arginine hexyl ester hydrochloride salt] | low allergy inducing activity | a significant increase in the anti-OVA-specific IgE antibody production was not observed |  |  |  |  |
| CCCCCCCCCCCCCCCCCCC(CCCCCCCCCCCCCCCCCC)C(=O)N[C@@H](CC(C)C)C(=O)OC [SZ86, N-(2-octadecyleicosanoyl)-L-leucine methyl ester] | low allergy inducing activity | a significant increase in the anti-OVA-specific IgE antibody production was not observed |  |  |  |  |
| CCCCCCCCCCCCCCCC(=O)N[C@@H](CC(C)C)C(=O)OCCCCCC [SZ97, N-hexadecanoyl-L-leucine hexyl ester] | low allergy inducing activity | a significant increase in the anti-OVA-specific IgE antibody production was not observed |  |  |  |  |
| CCCCCCCCCCCCCCCCCCCCCC(=O)N[C@@H](CCC(=O)O)C(=O)N(CC)CC [SZ106, N^2-docosanoyl-N^1,N^1-diethyl-L-glutamic acid 1-amide] | low allergy inducing activity | a significant increase in the anti-OVA-specific IgE antibody production was not observed |  |  |  |  |
| CCCCCCCCCCCCCCCCCCCCCC(=O)NC(=N)NCCCCN.Cl [SZ108, N-docosanoylagmatine hydrochloride salt] | low allergy inducing activity | a significant increase in the anti-OVA-specific IgE antibody production was not observed |  |  |  |  |
| CCCCCCCCCCCCCCCC(=O)N[C@@H](CC(C)C)C(=O)N(CC)CC [SZ92, N^2-hexadecanoyl-N^1,N^1-diethyl-L-leucinamide] | low allergy inducing activity | a significant increase in the anti-OVA-specific IgE antibody production was not observed |  |  |  |  |
| CCCCCCCCCCCCCCCC(=O)NC(=N)NCCCCN [SZ62, N-hexadecanoylagmatine] |  |  | lower allergy inducing activity | lower allergy inducing activity | significantly lower | significantly increased |
